Biological target: T1, NR4A1 (Homo sapiens, UniProt P22736)
T1 construct: NR-V04 effectively promoted the degradation of NR4A1 in two human melanoma cell lines within 16 h; endogenous in cells; host or cells: CHL-1, A375, WM164, M229 human melanoma cells
Experiment: NR4A1 degradation in A375 human melanoma cells (immunoblotting)
Type: cell-based
Conditions: 16 h treatment, read-out: 50% degradation concentration (DC50) of NR4A1
Procedure: Human melanoma cell lines: A375 and CHL-1 (gifts from Dr. D. Zhou, the University of Texas Health Science Center, San Antonio, TX, USA) were cultured in Dulbecco’s Modified Eagles’ Medium (DMEM, D5796; Sigma-Aldrich), WM164 and M229 (gifts from Dr. K.S.M. Smalley’s lab) were cultured in RPMI-1640 (R8758; Sigma-Aldrich). Mouse melanoma cell lines: B16F10 (CRL-6475, ATCC) was cultured in DMEM, SW1 and SM1 (gift from Dr. K.S.M. Smalley, Moffitt Cancer Center, Tampa, FL, USA) were cultured in RPMI. Human epithelial kidney cell lines: HEK293T (293T, CRL-3216; ATCC) and Vhl-KO-293T (gift from Dr. D. Zhou, the University of Texas Health Science Center, San Antonio, TX, USA) were cultured in DMEM. Mouse colon cancer cell lines: MC38 (ENH204-FP; Kerafast Inc.) was cultured in DMEM supplemented with 1 mM glutamine, […] non-essential amino acids (11140050; Thermo Fisher Scientific), 1 mM sodium pyruvate (11360070; Thermo Fisher Scientific), and 10 mM HEPES (15630080; Thermo Fisher Scientific). […]
Samples were lysed using radioimmunoprecipitation assay buffer (RIPA) lysis buffer (150 mM NaCl, 5 mM EDTA, 50 mM Tris pH 8.0, 0.5% sodium deoxycholate, 1% NP-40, 0.1% SDS) supplemented with 1 mM dithiothreitol and protease inhibitors. The lysates were separated by SDS-PAGE and analyzed using standard western blotting procedures ([Khan et al., 2019]). […]

T1 sequence (P22736 whole entry): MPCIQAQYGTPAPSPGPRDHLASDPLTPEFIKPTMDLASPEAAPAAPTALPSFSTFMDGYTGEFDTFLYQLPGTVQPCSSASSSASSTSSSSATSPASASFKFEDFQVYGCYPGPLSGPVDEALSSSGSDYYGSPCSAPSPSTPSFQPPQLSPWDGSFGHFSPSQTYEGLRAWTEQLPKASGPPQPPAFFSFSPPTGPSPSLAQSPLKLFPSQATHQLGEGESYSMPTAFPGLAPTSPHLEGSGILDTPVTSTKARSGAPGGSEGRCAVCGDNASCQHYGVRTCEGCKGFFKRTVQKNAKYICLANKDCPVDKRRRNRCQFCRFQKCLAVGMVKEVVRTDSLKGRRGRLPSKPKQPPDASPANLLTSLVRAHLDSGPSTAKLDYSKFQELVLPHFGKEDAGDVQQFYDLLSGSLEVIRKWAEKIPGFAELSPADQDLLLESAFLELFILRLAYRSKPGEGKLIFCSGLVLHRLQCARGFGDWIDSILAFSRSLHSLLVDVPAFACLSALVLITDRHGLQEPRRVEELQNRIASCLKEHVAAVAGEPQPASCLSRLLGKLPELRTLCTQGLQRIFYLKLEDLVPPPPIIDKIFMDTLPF

CC1=C(O)C(=O)C=C2C1=CC=C1[C@@]2(C)CC[C@@]2(C)[C@@H]3C[C@](C)(C(=O)NCCOCCOCCOCCOCC(=O)N[C@H](C(=O)N4C[C@H](O)C[C@H]4C(=O)N[C@@H](C)c4ccc(-c5scnc5C)cc4)C(C)(C)C)CC[C@]3(C)CC[C@]12C [NR-V04]
DC50: 519 nM

Reference: article PMC10857906, “PROTAC-mediated NR4A1 degradation as a novel strategy for cancer immunotherapy” (The Journal of Experimental Medicine, 2024)
